The values below come from patent US20240188566A1, “Biocidal Composition and Method” (ARXADA, LLC, priority 2021, published 2024).

Marks after values point to notes of the source that are not given here.

Common to all, as to type: cell-based
The test system of experiment [1] is Pseudomonas aeruginosa, Escherichia coli, Enterobacter cloacae, Acinetobacter calcoaceticus. The experiment is described as follows: In-can challenge test, modified ASTM D2574-97 (Table 1). The method, then:
(§1) Various formulations were made in accordance with the present disclosure and tested for performance. In one challenge test, the efficacy of dicyandiamide as an adjuvant for BIT was evaluated using modified ASTM D2574-97 “Standard Test Method for Resistance of Emulsion Paints in the Container to Attack by Microorganisms” with higher inoculation volumes and frequency. A standard consortium of four (4) bacterial populations: Pseudomonas aeruginosa, Escherichia coli, Enterobacter cloacae, Acinetobacter calcoaceticus was used to inoculate three (3) different samples at ten percent (10%), five percent (5%), or two and a half percent (2.5%) of the sample size. At twenty-four (24) hours and seventy-two (72) hours after each inoculation, a portion of each sample was streaked on tryptic soy agar. A dilution plate count was performed at the last seventy-two (72) hour time point.
(§2) Example data provided in Tables 1, 2 and 3 should be understood as indicating the degree of microbial growth observed for a given data point unless otherwise indicated. In particular, each plate is ranked from 0 through 5c (i.e., one of 0, 1, 2, 3, 4, 5, or 5c) according to the degree of observed microbial growth, where: a “0” ranking indicates no growth; a “1” ranking indicates one (1) through five (5) observed colony forming unit (cfu), i.e., the plate was very lightly contaminated; a “2” ranking indicates six (6) through fifteen (15) cfu, i.e., the plate was lightly contaminated; a “3” ranking indicates sixteen (16) through thirty (30) cfu, i.e., the plate was moderately contaminated; a “4” ranking indicates thirty-one (31) through forty-five (45) cfu, i.e., the plate was heavily contaminated; a “5” ranking indicates greater than (45) cfu, i.e., the plate was severely contaminated; and a “5c” ranking indicates confluent growth, i.e., the plate was very severely contaminated. Thus, for instance, Table 1, Challenge 1 at 24 h for BIT 50 ppm has a value of 5 indicating greater than forty-five (45) cfu were observed. As another example for illustration, Table 1, Challenge 1 at 24 h for dicyandiamide 5,000 ppm+BIT 50 ppm has a value of 1 indicating one (1) through five (5) cfu was observed.

The test system is the same in experiment [2]. The experiment can be described thus: Repeat in-can challenge test, same conditions (Table 2). The following applies: Dicyandiamide 5,000 ppm. How it is done:
as §1, §2

The subject of another experiment is microbial growth. The experiment can be described thus: In-can challenge test of dicyandiamide as adjuvant for MIT (Table 3). The following applies: for degree of microbial growth (plate ranking) / passing result of challenge test: Dicy 0.
Text: However, using a combination of MIT and dicyandiamide can allow for effective microbial control at MIT concentrations as low as 20 ppm.
as §2

In the case of `N#CN=C(N)N` [Dicyandiamide, 2-cyanoguanidine], the “degree of microbial growth (plate ranking)” value (shortened to “degree of microbial growth”) in experiment [1] (Dicyandiamide 5,000 ppm, Challenge 1 (10%), 24 h) is on record as 5c; in experiment [1] (Dicyandiamide 5,000 ppm, Challenge 1 (10%), 72 h), 5c; in experiment [1] (Dicyandiamide 5,000 ppm, Challenge 2 (5%), 72 h) it was 5c; in experiment [1] (Dicyandiamide 5,000 ppm, Challenge 3 (2.5%), 24 h), 5c; in experiment [1] (Dicyandiamide 10,000 ppm, Challenge 1 (10%), 24 h), 5c; in experiment [1] (Dicyandiamide 10,000 ppm, Challenge 1 (10%), 72 h), 1 (a “1” ranking indicates one (1) through five (5) observed colony forming unit (cfu), i.e., the plate was very lightly contaminated). Moreover, the “degree of microbial growth” value in experiment [1] (Dicyandiamide 10,000 ppm, Challenge 2 (5%), 72 h) is 5 (a “5” ranking indicates greater than (45) cfu, i.e., the plate was severely contaminated); in experiment [1] (Dicyandiamide 10,000 ppm, Challenge 3 (2.5%), 24 h) it was 5 (a “5” ranking indicates greater than (45) cfu, i.e., the plate was severely contaminated); in experiment [2] (Challenge 1 (10%), 24 h) it was 5c; in experiment [2] (Challenge 1 (10%), 72 h), 5c; in experiment [2] (Challenge 2 (5%), 72 h), 5c; in experiment [2] (Challenge 3 (2.5%), 24 h) it was 5c. The dilution plate count is given as 8.0 × 10^6 in experiment [1] (Dicyandiamide 5,000 ppm, Challenge 3 (2.5%), 72 h); 4.2 × 10^6 in experiment [1] (Dicyandiamide 10,000 ppm, Challenge 3 (2.5%), 72 h); 2.4 × 10^7 in experiment [2] (Challenge 3 (2.5%), 72 h). Further, the “efficacy of dicyandiamide alone compared to the blank” value in experiment [1] (Table 1, not in combination with BIT) is “no significant difference compared to the blank”.
On to `Cn1sccc1=O` [MIT − 50, 2-methyl-4-isothiazolin-3-one], for which the “degree of microbial growth” value is on record as 5 (a “5” ranking indicates greater than (45) cfu, i.e., the plate was severely contaminated) in the experiment with microbial growth (MIT 15 ppm as active (MIT-50 30 ppm), 1st challenge, 24); 5 (a “5” ranking indicates greater than (45) cfu, i.e., the plate was severely contaminated) in the experiment on microbial growth (MIT 15 ppm as active (MIT-50 30 ppm), 1st challenge, 72); 5 (a “5” ranking indicates greater than (45) cfu, i.e., the plate was severely contaminated) in the experiment with microbial growth (MIT 15 ppm as active (MIT-50 30 ppm), 2nd challenge, 72); 5 (a “5” ranking indicates greater than (45) cfu, i.e., the plate was severely contaminated) in the experiment on microbial growth (MIT 15 ppm as active (MIT-50 30 ppm), 3rd challenge, 24); 5 (a “5” ranking indicates greater than (45) cfu, i.e., the plate was severely contaminated) in the experiment with microbial growth (MIT 15 ppm as active (MIT-50 30 ppm), 3rd challenge, 72); 5 (a “5” ranking indicates greater than (45) cfu, i.e., the plate was severely contaminated) with microbial growth (MIT 20 ppm as active (MIT-50 40 ppm), 1st challenge, 24). The “degree of microbial growth” value is recorded as 5 (a “5” ranking indicates greater than (45) cfu, i.e., the plate was severely contaminated) with microbial growth (MIT 20 ppm as active (MIT-50 40 ppm), 1st challenge, 72); 5 (a “5” ranking indicates greater than (45) cfu, i.e., the plate was severely contaminated) in the experiment with microbial growth (MIT 20 ppm as active (MIT-50 40 ppm), 2nd challenge, 72); 5 (a “5” ranking indicates greater than (45) cfu, i.e., the plate was severely contaminated) in the experiment with microbial growth (MIT 20 ppm as active (MIT-50 40 ppm), 3rd challenge, 24); 5 (a “5” ranking indicates greater than (45) cfu, i.e., the plate was severely contaminated) in the experiment with microbial growth (MIT 20 ppm as active (MIT-50 40 ppm), 3rd challenge, 72); 5 (a “5” ranking indicates greater than (45) cfu, i.e., the plate was severely contaminated) in the experiment with microbial growth (MIT 25 ppm as active (MIT-50 50 ppm), 1st challenge, 24); 2 (a “2” ranking indicates six (6) through fifteen (15) cfu, i.e., the plate was lightly contaminated) with microbial growth (MIT 25 ppm as active (MIT-50 50 ppm), 1st challenge, 72). For the same compound, the “degree of microbial growth” value with microbial growth (MIT 25 ppm as active (MIT-50 50 ppm), 2nd challenge, 72) is 5 (a “5” ranking indicates greater than (45) cfu, i.e., the plate was severely contaminated); in the experiment on microbial growth (MIT 25 ppm as active (MIT-50 50 ppm), 3rd challenge, 24), 5 (a “5” ranking indicates greater than (45) cfu, i.e., the plate was severely contaminated); in the experiment on microbial growth (MIT 25 ppm as active (MIT-50 50 ppm), 3rd challenge, 72) it was 5 (a “5” ranking indicates greater than (45) cfu, i.e., the plate was severely contaminated); in the experiment with microbial growth (MIT 30 ppm as active (MIT-50 60 ppm), 1st challenge, 24) it was 5 (a “5” ranking indicates greater than (45) cfu, i.e., the plate was severely contaminated); in the experiment on microbial growth (MIT 30 ppm as active (MIT-50 60 ppm), 1st challenge, 72) it was 0; in the experiment with microbial growth (MIT 30 ppm as active (MIT-50 60 ppm), 2nd challenge, 72), 5 (a “5” ranking indicates greater than (45) cfu, i.e., the plate was severely contaminated). Besides, the “degree of microbial growth” value in the experiment on microbial growth (MIT 30 ppm as active (MIT-50 60 ppm), 3rd challenge, 24) is on record as 5 (a “5” ranking indicates greater than (45) cfu, i.e., the plate was severely contaminated); in the experiment on microbial growth (MIT 30 ppm as active (MIT-50 60 ppm), 3rd challenge, 72), 0; with microbial growth (MIT 35 ppm as active (MIT-50 70 ppm), 1st challenge, 24) it was 5 (a “5” ranking indicates greater than (45) cfu, i.e., the plate was severely contaminated); in the experiment with microbial growth (MIT 35 ppm as active (MIT-50 70 ppm), 1st challenge, 72) it was 0; with microbial growth (MIT 35 ppm as active (MIT-50 70 ppm), 2nd challenge, 72) it was 0; in the experiment with microbial growth (MIT 35 ppm as active (MIT-50 70 ppm), 3rd challenge, 24), 5 (a “5” ranking indicates greater than (45) cfu, i.e., the plate was severely contaminated). Moreover, the “degree of microbial growth” value with microbial growth (MIT 35 ppm as active (MIT-50 70 ppm), 3rd challenge, 72) is 0. For the same compound, the “passing result of challenge test” value with microbial growth (MIT 30 ppm as active (MIT-50 60 ppm)) was “MIT − 50 60 ppm (30)*”; in the experiment on microbial growth (MIT 35 ppm as active (MIT-50 70 ppm)) it was “MIT − 50 70 ppm (35)*”. The “MIT concentration giving passing results” value in the experiment on microbial growth (MIT alone, no guanidine enhancer) was at least 30 ppm.
